Data published in patent EP4737453A1, “NOVEL SELENOPHENE DERIVATIVES” (Aigen Sciences Inc., priority 2023, dated 2025).

Columns and labels:
[1] = target: T1, SOS1 and KRAS G12C interaction (Homo sapiens, UniProt Q07889); assay: Biochemical analysis of the inhibitory activity of SOS1 and KRAS G12C interaction (time-resolved fluorescence, 665/615 nm)
T1 sequence (Q07889 564-1049 limits assumed): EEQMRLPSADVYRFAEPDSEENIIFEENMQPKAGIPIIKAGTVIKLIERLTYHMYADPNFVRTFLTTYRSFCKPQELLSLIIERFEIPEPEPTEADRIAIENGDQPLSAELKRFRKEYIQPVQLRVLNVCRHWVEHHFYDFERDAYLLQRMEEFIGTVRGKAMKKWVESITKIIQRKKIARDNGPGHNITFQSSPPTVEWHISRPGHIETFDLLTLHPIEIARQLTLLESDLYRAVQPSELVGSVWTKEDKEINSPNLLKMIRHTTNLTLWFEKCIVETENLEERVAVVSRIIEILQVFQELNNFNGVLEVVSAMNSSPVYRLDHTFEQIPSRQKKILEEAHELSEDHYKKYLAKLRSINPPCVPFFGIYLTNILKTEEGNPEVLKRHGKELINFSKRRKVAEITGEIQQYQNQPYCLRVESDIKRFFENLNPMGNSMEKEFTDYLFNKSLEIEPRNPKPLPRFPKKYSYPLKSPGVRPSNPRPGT
Experimental: Biochemical analysis of the inhibitory activity of SOS1 and KRAS G12C interaction
In this experimental example, the efficacy of the compound according to the present invention in inhibiting the binding of KRAS and SOS1 was biochemically measured. A KRAS G12C working solution was prepared by adding biotin-linked KRAS G12C protein and europium-linked streptavidin to assay buffer solution (20 mM HEPES, 50 mM NaCl, 200 µg/mL […] (BSA), 0.01% Pluronic F127). Then, SOS1, in which a tag consisting of six histidine residues is covalently linked, and anti-histidine tag antibody D2 were added to the assay buffer to prepare an SOS1 working solution. After these two working solutions were added to the wells of a well plate, solutions diluted according to the experimental concentration of the test compound from the 10 mM dimethyl sulfoxide (DMSO) stock solution of the Example compound or positive control compound were added to the wells in 100 nL aliquots using an Echo automatic dispenser (Beckman Coulter, USA), or a DMSO blank was added to the wells.

[2] = target: T2, SOS1 and KRAS G12D interaction (Homo sapiens, UniProt Q07889); assay type: biochemical
T2 sequence (Q07889 564-1049 limits assumed): T1 sequence (Q07889 564-1049 limits assumed)

[3] = target: T3, SOS2 and KRAS G12C interaction (Homo sapiens, UniProt Q07890); assay type: biochemical
T3 sequence (Q07890 1-1332): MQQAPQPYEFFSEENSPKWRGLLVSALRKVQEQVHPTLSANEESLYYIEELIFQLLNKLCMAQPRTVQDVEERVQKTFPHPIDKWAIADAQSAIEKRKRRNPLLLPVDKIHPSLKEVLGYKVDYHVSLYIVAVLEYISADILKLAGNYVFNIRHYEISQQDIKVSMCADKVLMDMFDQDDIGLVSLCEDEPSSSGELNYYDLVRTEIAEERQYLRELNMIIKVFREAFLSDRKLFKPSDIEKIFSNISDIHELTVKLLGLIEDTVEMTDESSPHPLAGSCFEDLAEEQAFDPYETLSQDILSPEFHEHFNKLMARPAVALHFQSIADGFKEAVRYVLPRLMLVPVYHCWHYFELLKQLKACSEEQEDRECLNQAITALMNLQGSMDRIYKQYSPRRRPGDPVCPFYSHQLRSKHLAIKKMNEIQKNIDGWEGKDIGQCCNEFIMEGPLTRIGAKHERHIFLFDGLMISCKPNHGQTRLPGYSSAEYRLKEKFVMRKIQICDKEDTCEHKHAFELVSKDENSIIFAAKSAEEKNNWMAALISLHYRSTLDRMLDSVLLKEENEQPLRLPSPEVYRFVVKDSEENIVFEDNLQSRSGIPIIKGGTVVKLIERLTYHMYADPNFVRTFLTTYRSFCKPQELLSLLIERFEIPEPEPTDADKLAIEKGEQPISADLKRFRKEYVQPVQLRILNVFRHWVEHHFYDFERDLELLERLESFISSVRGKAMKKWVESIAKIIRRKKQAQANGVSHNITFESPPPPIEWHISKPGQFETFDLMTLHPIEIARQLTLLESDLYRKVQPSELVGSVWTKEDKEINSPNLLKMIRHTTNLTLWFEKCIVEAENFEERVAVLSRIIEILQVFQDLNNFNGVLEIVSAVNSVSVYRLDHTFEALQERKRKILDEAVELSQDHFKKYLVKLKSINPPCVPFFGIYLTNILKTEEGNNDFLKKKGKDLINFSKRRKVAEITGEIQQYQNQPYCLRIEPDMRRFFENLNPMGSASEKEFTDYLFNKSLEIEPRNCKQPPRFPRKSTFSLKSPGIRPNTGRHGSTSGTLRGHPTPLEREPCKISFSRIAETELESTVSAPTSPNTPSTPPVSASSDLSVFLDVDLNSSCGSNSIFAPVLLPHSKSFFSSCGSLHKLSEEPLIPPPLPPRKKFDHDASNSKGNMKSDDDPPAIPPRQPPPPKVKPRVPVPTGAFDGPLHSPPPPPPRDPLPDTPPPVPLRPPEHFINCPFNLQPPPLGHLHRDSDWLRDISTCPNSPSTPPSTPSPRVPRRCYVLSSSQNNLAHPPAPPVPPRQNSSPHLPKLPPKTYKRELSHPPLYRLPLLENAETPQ

Compound `CNCc1ccccc1-c1c[se]c([C@@H](C)Nc2nc(C)nc3cc(OC)c(OC)cc23)c1` [Example 1, (R)-6,7-dimethoxyl-2-methyl-N-(1-(4-(2-((methylamino)methyl)phenyl)selenophen-2-yl)ethyl)quinazolin-4-amine] has an IC50 [1] of 0.0186 µM, an IC50 [2] of 0.0084 µM and an IC50 [3] of 24.6 µM.
